ChEMBL document CHEMBL5241102, “Drugs for the treatment of glaucoma: Targets, structure-activity relationships and clinical research” (Eur J Med Chem, 2021)
Several values for one entry are separate records, joined by “and”; a condition that tells them apart may be missing. Identical values can stand only once.

Columns and labels:
[1] = Induction of disruption of actin stress fibers in PTM cells by actin stress fiber assay; assay type: functional, cell-based, Sus scrofa; conditions: ptm cell
[2] = Induction of disruption of actin stress fibers in human TM1 cells by actin stress fiber assay; assay type: functional, cell-based
Autotaxin = Autotaxin (Homo sapiens, UniProt Q13822); assay: Inhibition of ATX (unknown origin)
[3] = Half life in rabbit; assay type: ADME, Oryctolagus cuniculus; conditions: in vivo
Mus musculus = species: Mus musculus; assay: Antiglaucoma activity in mouse eye assessed as increase in lymphatic drainage relative to control; assay type: functional
[4] = target: Prostaglandin E2 receptor EP2 subtype (Homo sapiens, UniProt P43116); assay: Binding affinity to EP2 (unknown origin) assessed as inhibition constant
Sequence of Prostaglandin E2 receptor EP2 subtype (P43116 whole entry): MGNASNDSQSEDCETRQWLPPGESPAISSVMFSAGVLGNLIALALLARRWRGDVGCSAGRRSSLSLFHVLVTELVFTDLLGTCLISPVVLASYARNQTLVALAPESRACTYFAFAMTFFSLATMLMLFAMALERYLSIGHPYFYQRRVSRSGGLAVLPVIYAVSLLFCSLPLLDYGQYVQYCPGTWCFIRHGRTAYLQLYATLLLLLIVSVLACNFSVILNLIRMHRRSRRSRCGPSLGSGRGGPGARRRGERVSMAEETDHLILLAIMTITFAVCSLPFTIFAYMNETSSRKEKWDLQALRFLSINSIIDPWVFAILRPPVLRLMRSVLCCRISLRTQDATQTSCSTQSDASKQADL

Rhesus monkey = assay: Antiglaucoma activity in ocular […] monkey assessed as reduction in intraocular pressure; assay type: functional, organism-based; conditions: Macaca mulatta
[5] = Half life in human; assay type: ADME
[6] = target: Prostaglandin F2-alpha receptor (Homo sapiens, UniProt P43088); assay: Agonist activity at FP receptor (unknown origin)
Sequence of Prostaglandin F2-alpha receptor (P43088 whole entry): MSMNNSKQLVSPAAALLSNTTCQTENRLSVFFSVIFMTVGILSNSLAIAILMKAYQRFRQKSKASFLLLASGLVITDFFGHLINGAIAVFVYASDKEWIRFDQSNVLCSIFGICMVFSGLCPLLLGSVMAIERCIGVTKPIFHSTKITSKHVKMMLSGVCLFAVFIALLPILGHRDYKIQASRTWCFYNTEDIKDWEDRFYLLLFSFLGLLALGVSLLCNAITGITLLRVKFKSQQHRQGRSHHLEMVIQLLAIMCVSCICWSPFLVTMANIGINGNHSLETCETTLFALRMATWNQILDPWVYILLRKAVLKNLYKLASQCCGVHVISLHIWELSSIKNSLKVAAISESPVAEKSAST

[7] = target: T1, Prostaglandin E2 receptor EP3 subtype (Homo sapiens, UniProt P43115); assay: Agonist activity at EP3 (unknown origin)
T1 sequence (P43115 whole entry): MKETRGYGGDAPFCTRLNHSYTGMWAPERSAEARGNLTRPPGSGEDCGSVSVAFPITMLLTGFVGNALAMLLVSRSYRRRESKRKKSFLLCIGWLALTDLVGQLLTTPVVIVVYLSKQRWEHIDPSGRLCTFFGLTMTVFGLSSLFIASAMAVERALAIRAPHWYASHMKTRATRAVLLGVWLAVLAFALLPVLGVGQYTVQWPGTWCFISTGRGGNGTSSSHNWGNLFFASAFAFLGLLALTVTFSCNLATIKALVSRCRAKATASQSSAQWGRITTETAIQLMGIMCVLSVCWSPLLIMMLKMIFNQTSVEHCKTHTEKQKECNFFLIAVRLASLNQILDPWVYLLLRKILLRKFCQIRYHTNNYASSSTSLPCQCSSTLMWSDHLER

`Cc1ccc(C(=O)OCc2ccc([C@@H](CN)C(=O)Nc3ccc4cnccc4c3)cc2)c(C)c1` gave an IC50 [1] of 79 nM and an IC50 [2] of 16 nM.
For `NC[C@@H](C(=O)Nc1ccc2cnccc2c1)c1ccc(CO)cc1`, the IC50 [1] was 22 nM and 3 nM.
`CCCCCn1c(N2CCC[C@H](C(=O)O)C2)cc(=O)n2cc(-c3ccc(Cl)cc3)nc12` gave an IC50 (Autotaxin) of 110 nM.
`O=C(CCC/C=C\C[C@@H]1[C@@H](CC[C@@H](O)CCc2ccccc2)[C@H](O)C[C@@H]1O)OCCCCO[N+](=O)[O-]` [LATANOPROSTENE BUNOD] gave a half-life [3] of 1.8 h.
For `CC(C)OC(=O)CCC/C=C\C[C@@H]1[C@@H](CC[C@@H](O)CCc2ccccc2)[C@H](O)C[C@@H]1O` [LATANOPROST], the Activity (Mus musculus) was 400%.
`O=C(O)CNc1cccc(CN(Cc2ccc(-n3cccn3)cc2)S(=O)(=O)c2cccnc2)n1` [OMIDENEPAG] gave a Ki [4] of 3.6 nM, an EC50 (Rhesus monkey) of 8.3 nM and a half-life [5] of 0.5 h.
For `O=C(O)CCC[C@H]1CC[C@@H]2[C@@H](/C=C/[C@@H](O)COc3cc(F)ccc3F)[C@H](O)C[C@@H]2OC1` [ONO-AG-367], the EC50 [6] was 22.3 nM and the EC50 [7] was 28.6 nM.
Work on `CC(C)OC(=O)CCC[C@H]1CC[C@@H]2[C@@H](/C=C/[C@@H](O)COc3cc(F)ccc3F)[C@H](O)C[C@@H]2OC1` [SEPETAPROST] yielded an EC50 [6] of 3030 nM and an EC50 [7] of 10 nM.
